Reference: patent publication US8541592B2, “Inhibitors of 11-beta-hydroxysteroid dehydrogenase type 1” (Amgen Inc., priority 2005, dated 2013)

The molecules below were run against T1, 11β-HSD1 (human enzyme) (Homo sapiens, UniProt P28845) (assay: Enzyme Assay (SPA, 3H-cortisone), human enzyme prep). Details: species of enzyme (human or mouse) not stated.
T1 construct: made in house
Type: biochemical

T1 sequence (P28845 whole entry): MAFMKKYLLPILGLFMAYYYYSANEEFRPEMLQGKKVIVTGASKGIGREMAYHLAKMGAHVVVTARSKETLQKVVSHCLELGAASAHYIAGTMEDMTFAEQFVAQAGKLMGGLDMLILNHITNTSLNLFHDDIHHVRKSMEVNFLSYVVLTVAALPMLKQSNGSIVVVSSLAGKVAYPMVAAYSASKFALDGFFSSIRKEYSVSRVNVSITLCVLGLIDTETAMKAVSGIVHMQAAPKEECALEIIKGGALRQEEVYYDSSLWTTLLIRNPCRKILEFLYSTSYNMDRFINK

IC50, < 20 nM:
CC1(CC2CCOCC2)SC(N[C@H]2C[C@@H]3CC[C@H]2C3)=NC1=O (stereo partly drawn) [2-((1S,2S,4R)-bicyclo[2.2.1]heptan-2-ylamino)-5-methyl-5-((tetrahydro-2H-pyran-4-yl)methyl)thiazol-4(5H)-one]
CC(C)C1(C)SC(Nc2ccccc2Cl)=NC1=O (stereo not shown) [2-((2-chlorophenyl)amino)-5-methyl-5-(1-methylethyl)-1,3-thiazol-4(5H)-one]
Cc1ccccc1NC1=NC(=O)C(C2CCCC2)S1 (stereo not shown) [2-(o-toluidino)-5-cyclopentylthiazol-4(5H)-one]
CC(C)C1(C)SC(Nc2ccccc2C(F)(F)F)=NC1=O (stereo not shown) [5-methyl-5-(1-methylethyl)-2-((2-(trifluoromethyl)phenyl)amino)-1,3-thiazol-4(5H)-one]
